From US20110160146A1, “Conjungation of Small Molecules to Octaarginine Transporters for Overcoming Multi-Drug Resistance” (National Institute of Health (NIH), priority 2008, published 2011)

Assays:
[1] = test system: MCF-7; assay: cells; settings: Homo sapiens, MCF7, read-out: IC50 concentration
Method: (§1) After 72 hours, the cytotoxicity of the relevant compound was determined by an MTT based assay.
(§2) Cell Lines; SKOV-3 cells were obtained from ATCC; UCI-101 and UCI-107 cell lines were obtained from Drs. P. DiSaia and A. Manetta, University of California; MCF-7 and MCF-7-Pgp were obtained from Dr. D. Piwnica-Worms, Washington University; OVCA429, OVCA433 and the taxane resistant derivatives of these cells (OVCA429T, OVCA429TxT, OVCA433T and OVCA433TxT) were obtained from Dr. B. Sikic, Stanford University. All cells were grown in DMEM with 10% FBS.
(§3) Cell Cytotoxicity Assay. The cytotoxicity of relevant compounds was determined by IC50 assay. Cells were seeded overnight into 96-well plates, and then incubated with a serial dilution of the indicated compound for 20 min, before washing twice with fresh media, and incubation at 37° C. for 72 hr in drug-free media. The IC50 values were determined as the concentration of compound required to inhibit the viability of the cell layer by 50% relative to untreated, and cell-free control wells (100 and 0% viability respectively) determined from semi-logarithmic dose response curves. […] Bioluminescence was determined using an IVIS 50 system (Caliper Life Sciences, Alameda, Calif.). Each compound and dilution was tested in triplicate per experiment, with each experiment reproduced three times.

[2] = test system: OVCA 433; assay: cells; settings: Homo sapiens, OVCA433, read-out: IC50 concentration
Method: as §1, §2, §3

[3] = test system: SKOV-3; assay: cells; settings: Homo sapiens, SK-OV-3, read-out: IC50 concentration
Method: as §1, §2, §3

[4] = test system: UCI-101 luc; assay: cells; settings: Homo sapiens, UCI101, read-out: IC50 concentration
Method: as §1, §2, §3

[5] = test system: OVCA 429; assay: cells; settings: Homo sapiens, OVCA429, read-out: IC50 concentration
Method: as §1, §2, §3

[6] = test system: UCI-107 luc; assay: cells; settings: Homo sapiens, read-out: IC50 concentration
Method: as §1, §2, §3

[7] = test system: OVCA 433TxT; assay: cells; settings: Homo sapiens, read-out: IC50 concentration
Method: as §1
(§4) Within the panel of human cancer cells, there were three sets of related sensitive and resistant cell lines, the latter based wholly or in part on Pgp-mediated efflux. These resistant lines were either created through stable transfection of MCF-7 cells with Pgp (MCF-7-Pgp), or by selection through exposure of OVCA429 and OVCA433 cells to taxol (OVCA429T and OVCA433T)^19 or taxotere (OVCA429TxT and OVCA433TxT), creating a complex MDR phenotype including Pgp upregulation.
as §2, §3

[8] = test system: OVCA 429TxT; assay: cells; settings: Homo sapiens, read-out: IC50 concentration
Method: as §1, §4, §2, §3

[9] = test system: OVCA 433T; assay: cells; settings: Homo sapiens, read-out: IC50 concentration
Method: as §1, §4, §2, §3

[10] = test system: OVCA 429T; assay: cells; settings: Homo sapiens, read-out: IC50 concentration
Method: as §1, §4, §2, §3

[11] = test system: UCI-101 tumor cells expressing luciferase; assay: Mouse tumor model, UCI-101 intraperitoneal xenograft; assay type: in vivo, mice; settings: 10 mg/kg dose
From the text: (a) 1×10^7 UCI-101 tumor cells expressing luciferase were implanted into the peritoneal cavity of athymic nu/nu mice 7 days prior to treatment. […] For the purpose of these experiments TFA^− counteranions on both conjugates were exchanged to C. Subsequent tumor burden was followed by bioluminescence imaging (n=8/group). […] Tumor burden was followed by bioluminescence imaging. […] (n=8/group).
Mouse Tumor Models: Tumor xenografts were created by intraperitoneal injection of female athymic CD1 nu/nu or SCID mice with 1×10^7 cells. Versions of UCI-101, OVCA429 or OVCA429T cells were used expressing Firefly luciferase. […] Mice were then treated with three intraperitoneal injections (5 days apart) of 5 or 10 mg/kg taxol or equimolar dose equivalents of the taxol derivatives, or PBS as a control. For the purpose of these experiments TFA^− counteranions on both conjugates were exchanged to C. Subsequent tumor burden was followed by BLI. Once tumor burden reached 1×10^8 photons/sec/mouse the mice were euthanized.
Comparisons of survival (Kaplan-Meier) curves were made by the Wilcoxon-Rank test. Statistical significance was determined as p<0.05.

[12] = test system: MCF-7-pgp; assay: Cell cytotoxicity assay (IC50), MCF-7-pgp; settings: Homo sapiens, read-out: IC50 concentration
Method: as §1, §4, §2, §3

- IC50 [1]: 0.171 µM
- IC50 [2]: 0.294 µM
- IC50 [3]: 0.029 µM
- IC50 [4]: 0.246 µM
- IC50 [5]: 0.147 µM
- IC50 [6]: 0.32 µM
- IC50 [7]: 12.4 µM
- IC50 [8]: 2.52 µM
- IC50 [9]: 6.18 µM
- IC50 [10]: 15.8 µM
Structure (SMILES): CC(=O)O[C@H]1C(=O)[C@@]2(C)[C@H]([C@H](OC(=O)c3ccccc3)[C@]3(O)C[C@H](OC(=O)[C@H](O)[C@@H](NC(=O)c4ccccc4)c4ccccc4)C(C)=C1C3(C)C)[C@]1(OC(C)=O)CO[C@@H]1C[C@@H]2O [compound 1, Taxol, reference compound]
- complete responses [11]: 12.5%
- IC50 [12]: 0.867 µM
